Data as given in ChEMBL document CHEMBL1201862, “PubChem BioAssay data set” (2004).
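Dose response: 5 concentrations. Exposure: 48 h. Format: 96-well plates. Endpoint: linear interpolation; highest concentration if not reached. At the GI50, growth is halved.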 Activity calls are given as the source filed them. Rule as the data show it: active = GI50 up to about 1.1 µM and inactive = higher.

Columns and labels:
Assay in all cases: NCI-60 cell line screen, 48 h
MDA-MB-435 = system: MDA-MB-435
ACHN = system: ACHN
Malme-3M = system: Malme-3M
Hs-578T = system: Hs-578T
HT-29 = system: HT-29
MDA-MB-231 = system: MDA-MB-231
CCRF-CEM = system: CCRF-CEM
OVCAR-8 = system: OVCAR-8
EKVX = system: EKVX
NCI/ADR-RES = system: NCI/ADR-RES
T47D = system: T47D
CAKI-1 = system: CAKI-1
SF-539 = system: SF-539
KM12 = system: KM12
LXFL 529 = system: LXFL 529
K562 = system: K562
OVCAR-5 = system: OVCAR-5
HOP-62 = system: HOP-62
HL-60 = system: HL-60
M14 = system: M14

Compound	GI50 (MDA-MB-435)	GI50 (ACHN)	GI50 (Malme-3M)	GI50 (Hs-578T)	GI50 (HT-29)	GI50 (MDA-MB-231)	GI50 (CCRF-CEM)	GI50 (OVCAR-8)	GI50 (EKVX)	GI50 (NCI/ADR-RES)	GI50 (T47D)	GI50 (CAKI-1)	GI50 (SF-539)	GI50 (KM12)	GI50 (LXFL 529)	GI50 (K562)	GI50 (OVCAR-5)	GI50 (HOP-62)	GI50 (HL-60)	GI50 (M14)
CCOC(=O)c1c(C)c(C)n2c1NC(=O)C2	> 100 µM (inactive)	> 76.2 µM (inactive)	> 50.7 µM (inactive)	20.3 µM (inactive)	> 74.3 µM (inactive)	39 µM (inactive)	> 100 µM (inactive)	> 70.3 µM (inactive)	> 60.5 µM (inactive)	20.4 µM (inactive)	21.1 µM (inactive)	> 59.4 µM (inactive)	> 57 µM (inactive)	> 100 µM (inactive)	> 100 µM (inactive)	> 100 µM (inactive)	> 100 µM (inactive)	> 66.5 µM (inactive)	> 100 µM (inactive)	> 53.7 µM (inactive)
CC1(C2CCC3(C)C(C2)C3Sc2ccccc2)OCCO1 (stereo not drawn)		20.7 µM (inactive)	18.3 µM (inactive)		17.5 µM (inactive)		17.9 µM (inactive)	31.8 µM (inactive)	26.7 µM (inactive)			20.3 µM (inactive)	20.8 µM (inactive)	25.6 µM (inactive)	37.2 µM (inactive)	17.1 µM (inactive)	20.5 µM (inactive)	20.2 µM (inactive)	12.1 µM (inactive)	37 µM (inactive)
NC1=NC(c2ccccc2)CC(c2cc(Cl)ccc2O)=N1 (stereo not drawn)		15.3 µM (inactive)	21.8 µM (inactive)		17.5 µM (inactive)		22.1 µM (inactive)	16.2 µM (inactive)	15.3 µM (inactive)			14.9 µM (inactive)	15 µM (inactive)	13.7 µM (inactive)	15 µM (inactive)	10.1 µM (inactive)	19.9 µM (inactive)	16.2 µM (inactive)	16.1 µM (inactive)	16.9 µM (inactive)
CC[C@@]1(O)C(=O)OCc2c1cc1n(c2=O)Cc2cc3cc(OC)ccc3nc2-1	0.0441 µM (active)	0.00476 µM (active)	0.255 µM (active)		0.0268 µM (active)	0.0843 µM (active)	0.00457 µM (active)	0.0448 µM (active)	0.546 µM (active)	0.073 µM (active)		0.00476 µM (active)	0.0033 µM (active)	0.139 µM (active)	0.144 µM (active)	0.123 µM (active)	0.0452 µM (active)	0.00562 µM (active)	0.018 µM (active)	0.00718 µM (active)
